Read-outs that look alike come from different tables or passages of the source.
Assay: APP processing: AlphaLisa assay of secreted Aβ40 and Aβ42 from SP4CT cells
Format: cell-based
Details: Homo sapiens, SH-SY5Y cells expressing amyloid β protein (SP4CT cells)
Summary of the method: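 Secreted Aβ40 and Aβ42 were quantified separately by AlphaLisa luminescence, pairing streptavidin donor beads bearing biotinylated 4G8 with G210 or 12F4 acceptor beads. Samples were conditioned media from compound-treated SH-SY5Y cells expressing amyloid β protein (SP4CT).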

[1] = read-out: IC50, inhibition of production of Aβ40 peptide
[2] = read-out: IC50, inhibition of production of Aβ42 peptide

Structure (SMILES) | IC50 [1] | IC50 [2]
CCn1nc(-c2cccc(C(C)(C)NS(=O)(=O)CC(F)(F)F)c2)cc1Oc1ccc(C(=O)C(F)(F)F)cc1 [Example 73, N-[1-(3-{1-ethyl-5-[4-(trifluoroacetyl)phenoxy]-1H-pyrazol-3-yl}phenyl)-1-methylethyl]-2,2,2-trifluoroethanesulfonamide] | < 200 nM | < 200 nM
CCn1nc(Oc2ccc(C(F)(F)F)cc2)cc1-c1cccc(C2(NS(=O)(=O)NC)CC2)c1 [Example 34, N-[1-(3-{1-ethyl-3-[4-(trifluoromethyl)phenoxy]-1H-pyrazol-5-yl}phenyl)cyclopropyl]-N′-methylsulfamide] | < 200 nM | < 200 nM
CCn1nc(-c2cccc(C(C)(C)NS(=O)(=O)NC)c2)cc1Oc1ccc(C(F)(F)F)cc1 [Example 10, N-[1-(3-{1-ethyl-5-[4-(trifluoromethyl)phenoxy]-1H-pyrazol-3-yl}phenyl)-1-methylethyl]-N′-methylsulfamide] | < 200 nM | < 200 nM
CCn1nc(-c2cccc(C(C)(C)NS(=O)(=O)NC3CCCC3)c2)cc1Oc1ccc(C(F)(F)F)cc1 [Example 13, N-cyclopentyl-N′-[1-(3-{1-ethyl-5-[4-(trifluoromethyl)phenoxy]-1H-pyrazol-3-yl}phenyl)-1-methylethyl]sulfamide] | < 200 nM | < 200 nM
CCn1nc(-c2cccc(C(C)(C)NS(=O)(=O)CC(F)(F)F)c2)cc1Oc1ccc(CO)cc1 [Example 62, N-[1-(3-{1-ethyl-5-[4-(hydroxymethyl)phenoxy]-1H-pyrazol-3-yl}phenyl)-1-methylethyl]-2,2,2-trifluoroethanesulfonamide] | < 200 nM | < 200 nM
CCn1nc(Oc2ccc(F)cc2)cc1-c1cccc(C(C)(C)NS(=O)(=O)NCC(F)(F)F)c1 [Example 55, N-(1-{3-[1-ethyl-3-(4-fluorophenoxy)-1H-pyrazol-5-yl]phenyl}-1-methylethyl)-N'-(2,2,2-trifluoroethyl)sulfamide] | < 200 nM | < 200 nM

Second part, the compound after the results:

IC50 [1] | IC50 [2] | Structure (SMILES)
< 200 nM | < 200 nM | CCn1nc(Oc2ccc(C(F)(F)F)cc2)cc1-c1cccc(C2(NS(=O)(=O)NCC(F)(F)F)COC2)c1 [Example 101, N-[3-(3-{1-ethyl-3-[4-(trifluoromethyl)phenoxy]-1H-pyrazol-5-yl}phenyl)oxetan-3-yl]-N′-(2,2,2-trifluoroethyl)sulfamide]
< 200 nM | < 200 nM | CCn1nc(-c2cccc(C(C)(C)NS(=O)(=O)CC(F)(F)F)c2)c(C#Cc2ccccc2)c1Oc1ccc(C(F)(F)F)cc1 [Example 119, N-[2-(3-{1-ethyl-4-(phenylethynyl)-5-[4-(trifluoromethyl)phenoxy]-1H-pyrazol-3-yl}phenyl)propan-2-yl]-2,2,2-trifluoroethanesulfonamide]
< 200 nM | < 200 nM | CCn1nc(-c2cccc(C(C)(C)NS(=O)(=O)CC(F)(F)F)c2)cc1Oc1ccc(CNc2ccc(OC)cc2)cc1 [Example 82]
< 200 nM | < 200 nM | CCn1nc(-c2ccc3c(c2)CC(NS(=O)(=O)NCC(F)(F)F)C3)cc1Oc1ccc(C(F)(F)F)cc1 (stereo not drawn) [Example 121]
< 200 nM | < 200 nM | CCn1nc(-c2cccc(C(C)(C)NS(=O)(=O)CC(F)(F)F)c2)cc1Oc1ccc(CNCC(=O)OC)cc1 [Example 81, methyl N-[4-({1-ethyl-3-[3-(1-methyl-1-{[(2,2,2-trifluoroethyl)sulfonyl]amino}ethyl)phenyl]-1H-pyrazol-5-yl}oxy)benzyl]glycinate]
< 200 nM | < 200 nM | CCn1nc(Oc2ccc(C(F)(F)F)cc2)c(Br)c1-c1cccc(C(C)(C)NS(=O)(=O)CC(F)(F)F)c1 [Example 114, N-[2-(3-{4-Bromo-1-ethyl-3-[4-(trifluoromethyl)phenoxy]-1H-pyrazol-5-yl}phenyl)propan-2-yl]-2,2,2-trifluoroethanesulfonamide]

— patent US8871796B2, “Diaryl ether derivatives as notch sparing gamma secretase inhibitors” (Merck Sharp & Dohme Corp., priority 2009, dated 2014)
